Consider one substance from patent publication US12257290B2, “PIC1 inhibition of myeloperoxidase oxidative activity in an animal model” (priority 2018, dated 2025).

One assay deals with human neutrophils. The experiment in a line: Immune complex-activated serum-initiated NET formation by human neutrophils (fluorescence microscopy, PicoGreen free DNA). Conditions: for decrease of free DNA (PicoGreen): immune complex-activated sera + hydrogen peroxide. It is filed as cell-based. As to the method:
Neutrophils from the blood of healthy volunteers were purified from heparinized blood by Hypaque-Ficoll step gradient centrifugation, dextran sedimentation, and hypotonic lysis, as previously described.
A Neutrophil Extracellular Trap assay was performed in a microtiter plate as follows. The formation of NETs was induced by incubating 2.0×10^5 neutrophils in a 96 well tissue culture plates with RPMI media alone, or adding 0.05% of H2O2, or 12 nM PMA, or 8 μg/ml MPO, or PA-dPEG24 at various concentrations. For immune complex sera induced NET formation, activated sera was made by adding 5 μl of ovalbumin-anti-ovalbumin immune complex to 5% NHS in 0.3 ml of GVBS^++. This combination was allowed to incubate for 30 minutes at 37° C., and then 0.05 ml was added to the neutrophils in RPMI. Cells were then incubated for 1.5 hours at 37° C. in 5% CO2 incubator.
NET formation was quantitatively assayed as follows. Free DNA was measured by PicoGreen in the supernatant recovered from the NET microtiter plate well assay. Five hundred units of […] (Fisher) were added to each well to allow for digestion of released extracellular DNA for 10 minutes in 37° C. incubator. The preparation was then aliquoted into an adjacent well and mixed 1:1 with prepared PICO green reagent (Fisher). The fluorescence was then quantified on a BioTek microplate reader at Excitation 485 nm/Emission 528 nm.
NET formation was assayed by fluorescence microscopy. […]
PA-dPEG24 inhibits immune complex-initiated NET formation by human neutrophils. A potential relationship between immune complex-initiated complement-activated human sera and NET formation by human neutrophils was evaluated. […] The immune complex-initiated complement-activated human sera was then incubated with purified human neutrophils resulting in NET formation quantified by free DNA measurement with PicoGreen. The relative contribution of immune complexes was initially evaluated by themselves compared with immune complex-initiated complement-activated human sera for generation of NETs. […]

For the next assay, the system named is Human neutrophil MPO. The experiment in a line: Purified MPO inflammatory peritonitis model (peritoneal wash TMB peroxidase activity, PicoGreen free DNA). Type of assay: in vivo, Wistar rats. Particulars: for MPO activity in peritoneal wash: P<0.019. As to the method: Human neutrophil MPO (Lee Biosolutions) was diluted in sterile saline to the respective doses necessary for each experiment. PIC1 in the form of PA-dPEG24 (PolyPeptide Group) was solubilized and diluted in 0.5 M Histidine buffer, adjusted to pH 6.5, and then diluted to each of the respective doses used for each experiment.
Wistar rats were sedated and injected IP with purified MPO in experiments that were conducted under an Eastern Virginia Medical School IRB approved protocol (#17-008). 16-week-old male Wistar rats were used in these experiments weighing approximately 200 g. The rats received sedation with ketamine and acepromazine prior to all procedures. They then received a 1 ml IP injection with MPO in saline. After the time interval indicated, a tail vein phlebotomy was performed to obtain 250 mcl of blood in a K2EDTA Microtainer (BD). The animals were then euthanized with FatalPlus IV. A peritoneal wash with 20 ml of ice cold PBS was then performed by […] followed by massage and extraction from a small hole in the peritoneum with a blunt needle and syringe.
Cells were sedimented and supernatants were tested for MPO peroxidation of TMB, with sample processing performed as follows. Peritoneal wash fluid was centrifuged at 1500×g for 5 minutes to sediment cells and other debris. The resulting peritoneal wash fluid supernatant was aliquoted and frozen for further analysis. The cell pellet was resuspended to the original volume with saline and cells were counted on a hemocytometer. Plasma was collected after centrifugation of the lavender top blood collection tubes.
The MPO activity assay was performed as follows. Peritoneal fluid, along with pure MPO for a standard curve, was serially titrated in 0.1 ml in a 96 well plate followed by the addition of 0.1 ml of 3,3′,5,5′-tetramethylbenzidine (TMB) (Fisher). After one minute, 0.1 ml of 2.5 M H2SO4 was added to stop the reaction and the plate was read at 450 nm. Using linear regression from the standard curve, the MPO activity was calculated for each sample.
In the peritoneal wash fluid supernatants, free DNA was measured as a marker of NETosis via the PicoGreen assay. Peritoneal fluid or plasma, along with DNA (Invitrogen) for a standard curve, was serially titrated in 0.1 ml in a 96 well plate and used in the Quant-iT PicoGreen (Fisher) assay. The PicoGreen solution was diluted as directed by the kit instructions and added to samples, which were incubated in the dark for 10 minutes and then read on a fluorescent microplate reader at excitation 480 nm/emission 520 nm). Using linear regression from the standard curve, the DNA concentration was quantitated for each sample.
The effect of PIC1, in particular PA-dPEG24, on the inhibition of MPO and NETosis in MPO-mediated peritonitis was then assayed. A series of increasing doses of PA-dPEG24 (1 mg, 5 mg, and 20 mg) were injected IP immediately, i.e., one minute after purified MPO was inoculated, into the peritoneum followed 2 hours later by phlebotomy, euthanasia and peritoneal wash. A control was used where no PA-dPEG24 was administered. An MPO activity assay and a free DNA assay according to the methods discussed above were conducted for each of 0 mg, 1 mg, 5 mg, and 20 mg PA-dPEG24 doses.

Assay [1] has as its system classical complement pathway. Conditions: administered intravascularly into rats; by 30 seconds; cited from earlier work.

Ends that are not written are not given here.

As to “IALILEPICCQERAA-dPEG24 (cysteine pairing not given here) [PA-dPEG24, 15-amino acid PEGylated peptide, 24 PEG moieties at the C-terminus]”, the “decrease of free DNA (PicoGreen)” value in the assay with human neutrophils (2.2 mM PA-dPEG24, P=0.037) is recorded as 23%; with human neutrophils (4.5 mM PA-dPEG24, P<0.001) it was 3 fold. In addition, the “NETs identified by fluorescence microscopy” value in the assay on human neutrophils (5 mM PA-dPEG24, immune complex-initiated complement-activated sera) was “no NETs were identified”. The “MPO activity in peritoneal wash” value is “Statistically significant decreases” in the assay with Human neutrophil MPO (1 mg (5 mg/kg) IP, 2 h) and “Statistically significant decreases” in the assay with Human neutrophil MPO (5 mg (25 mg/kg) IP, 2 h). In the assay on Human neutrophil MPO (20 mg (100 mg/kg) IP, 2 h, P=0.11), the “free DNA in the peritoneal fluid (PicoGreen)” value is on record as “trend towards decreased free DNA”. In addition, in the assay with Human neutrophil MPO (20 mg (100 mg/kg) IP, 2 h, vs no PA-dPEG24, P=0.015), the “decrease in peroxidase activity by TMB in peritoneal wash” value was determined as 5 fold. Moreover, in the assay with Human neutrophil MPO (highest dose, P=0.22 vs no PIC1), the “free DNA in blood plasma (PicoGreen)” value is listed as “lowest with the highest dose”. Besides, the “systemic inhibition of complement activation” value in assay [1] is over 90%.
